Source: US7375124B2, “Use of α-phenylthiocarboxylic and α-phenyloxycarboxylic acids with serum-glucose-lowering and serum-lipid-lowering activity” (Sigma-Tau Industrie Farmaceutiche Riunite S.p.A., priority 2002, dated 2008)
Like-named read-outs stand apart in the source and are kept apart here.

Key:
mPPARαLBD/Gal4DBD = molecular target: T1, mPPARαLBD/Gal4DBD (Mus musculus, UniProt P23204); assay: Transactivation assay mediated by mPPARαLBD/Gal4DBD in COS-7 cells (CAT reporter); type: cell-based
T1 construct: expressed in transfected cells; host or cells: COS-7 (monkey kidney fibroblasts)
T1 sequence (P23204 239-466 limits assumed): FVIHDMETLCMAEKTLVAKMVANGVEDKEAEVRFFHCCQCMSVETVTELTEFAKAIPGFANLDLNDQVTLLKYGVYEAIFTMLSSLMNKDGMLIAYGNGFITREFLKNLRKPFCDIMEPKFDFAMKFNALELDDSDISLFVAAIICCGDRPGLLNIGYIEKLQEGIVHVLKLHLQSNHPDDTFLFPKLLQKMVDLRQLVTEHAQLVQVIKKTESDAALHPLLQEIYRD
Excerpt: In this model a transactivation assay is used in which the expression vector mPPARαLBD/Gal4 DBD allows the synthesis by the transfected cell of a chimeric protein, in which the ligand binding domain (LBD) of PPARα is fused with the DNA binding domain (DBD) of the transcription factor GAL4 of yeast [Luckow B. et al., Nucleic Acids Res. 15, 5490 (1987)]. Simultaneously, a plasmid (pG5CAT) is transfected which contains 5 copies of the high-affinity binding site for GAL4 (also called UAS, upstream activating sequence), upstream of the viral promoter E1b fused with the CAT reporter gene [Moya-Camarena S. Y. et al., J. Lipid Res. 40 (8), 1426-33 (1999)]. This model eliminates interference by possible endogenous receptors.
This is due to the fact that the activation of E1b and the production of CAT will occur exclusively thanks to the interaction of GAL4 DBD with its own response element (UAS). Since the transcription factor GAL4 is not expressed in […] cells, transactivation of the reporter gene can take place only when, as a result of the interaction of a ligand with the LBD of PPARα, the chimeric protein PPARα/GAL4 recognises the UAS sequence on the plasmid pG5CAT. Together with the expression vector and the reporter vector the cells were also transfected with the plasmid pCH110 which provides the internal control for the efficiency of transfection and the normalisation of the results.
A monkey kidney fibroblast cell line (COS-7) was used [Elbrecht A. et al., J. Biol. Chem. 274 (12), 7913-22 (1999)]. The cells were co-transfected with the reporter vector, the expression plasmid coding for the fusion protein Gal4 DBD/PPARαLBD and the control vector pCH110. The cells were exposed to increasing concentrations of the study compounds and CAT activity was evaluated. Untreated cells were used as controls.
Monkey kidney fibroblasts (COS-7) were cultured according to the usual cell culture techniques, at 37° C. in a 5% v/v carbon dioxide atmosphere using as the growth medium DMEM (Dulbecco's modified Eagle's medium) modified with 3.7 g/l of sodium bicarbonate, 4 mM L-glutamine, 4.5 g/l of glucose, 1 mM sodium pyruvate and 10% v/v of foetal bovine serum, in the presence of streptomycin 100 μg/ml and penicillin 100 U/ml final.
The cells were co-transfected using the transfection reagent FuGENE6 (Roche), consisting of a defined mixture of lipids capable of complexing the DNA and of transporting it into the cells. Twenty-four hours prior to transfection the cells were plated at a density of 1.2×10^5 cells/well in 12-well plates and maintained at 37° C. in a 5% v/v CO2 atmosphere. […] Briefly, the transfection mixture containing 0.8 μg of the expression vector, 1.6 μg of the reporter vector, 0.8 μg of the control vector and 9 μl of the FuGENE6 reagent per well was added directly to the cells in the presence of culture medium devoid of serum. After 5 hours, the transfection medium was replaced by 1 ml of culture medium complete with serum and antibiotics in the presence or absence of the molecules to be tested at 3 different concentrations (2, 20 and 100 μM). Wy-14,643 (2 μM), a known ligand of PPARα, was used as the positive reference compound.
After 48 hours' incubation at 37° C. in a 5% v/v CO2 atmosphere, the cells were washed twice with 1 ml of phosphate buffer (PBS) and removed mechanically from the wells in TEN buffer (Tris[hydroxymethyl]aminomethane 10 mM pH 8, ethylenediamine-tetraacetic acid 1 mM pH 8, sodium chloride 0.1 M). After centrifuging for 3 minutes at 1000 rpm, the cells were resuspended in 65 μl of lysis buffer (Tris-HCl 0.25 M, pH 8) and then lysed thanks to three rapid freeze-thaw cycles. The insoluble cellular materials (debris) were removed by centrifuging at 15,000 rpm for 15 minutes at 4° C., and the supernatant was recovered and used for the CAT and β-galactosidase activity assays. […]

C57BL/KsJ db/db mouse [1] = conditions: in vivo
Excerpt: (§1) Plasma levels of glucose, insulin, triglycerides, cholesterol, free fatty acids and urea were checked for a well-matched distribution of mice in the treatment groups.
(§2) At the start of treatment the body weights of the mice were checked and arrangements were made for monitoring water and feed consumption.
(§3) In the course of the experiment, serum glucose levels, oral glucose tolerance test (OGTT) findings, a number of lipid status parameters and weight gain were monitored.

C57BL/KsJ db/db mouse [2] = assay: Antidiabetic and serum-lipid-lowering activity in the db/db mouse (Experiments I and II); conditions: Experiment I; for Glucose: blood
Excerpt: as §1, §2, §3

[3] = after 12 days' treatment, feeding state, approx. 15 hours after last treatment
[4] = after 18 days' treatment, fasting 18 hours, 6 hours after last treatment
[5] = after 25 days' treatment, postabsorption, 7.5 hours after last treatment
[6] = after 25 days' treatment, postabsorption, 7.5 hours after last treatment, mean ± S.E.
[7] = after 18 days' treatment, fasting 18 hours, 6 hours after last treatment, mean ± S.E.
[8] = db/db mice, oral twice daily, after 12 days' treatment, feeding state, approx. 15 hours after last treatment, mean ± S.E.

COC(=O)C(C)(C)Sc1ccc(OCCc2ccc(Cl)cc2Cl)cc1 [Example 5, methyl 2-[4-(2-(2,4-dichlorophenyl)ethoxy)phenylthio]isobutyrate]
melting point: 73 to 74 °C

COC(=O)C(C)(C)Sc1cccc(OCCc2ccc3ccccc3c2)c1 [Example 10, methyl 2-[3-[2-(2-naphthyl)ethoxy]phenylthio]isobutyrato]
Activation of reporter gene CAT as a percentage of the reference compound (WY-14,643 2 μM = 100%) (mPPARαLBD/Gal4DBD; 2 μM): 98.1%
Activation of reporter gene CAT as a percentage of the reference compound (WY-14,643 2 μM = 100%) (mPPARαLBD/Gal4DBD; 20 μM): 360%
Activation of reporter gene CAT as a percentage of the reference compound (WY-14,643 2 μM = 100%) (mPPARαLBD/Gal4DBD; 100 μM): 462.7%

CC(C)OC(=O)C(C)(C)Oc1ccc(C(=O)c2ccc(Cl)cc2)cc1 [Fenofibrate, fenofibrate, reference compound]
Final b.w. (C57BL/KsJ db/db mouse [1]): 34.5 ± 1.0 g
Initial b.w. (C57BL/KsJ db/db mouse [1]): 33.3 ± 0.7 g
Variation % (final b.w.) vs control (C57BL/KsJ db/db mouse [1]): +22%
Variation % (initial b.w.) vs control (C57BL/KsJ db/db mouse [1]): +5%
Variation % (glucose) vs control (C57BL/KsJ db/db mouse [2]; [3]): −4%
Variation % (glucose) vs control (C57BL/KsJ db/db mouse [2]; after 12 days' treatment, postabsorption, 8 hours after last treatment): −1%
Variation % (AUC glucose at OGTT) vs control (C57BL/KsJ db/db mouse [2]; after 18 days' treatment, OGTT glucose 3 g/kg): −12%
AUC glucose at OGTT (C57BL/KsJ db/db mouse [2]; after 18 days' treatment, OGTT glucose 3 g/kg, fasting 18 hours, 5 hours after last treatment, mean ± S.E.): 45192 ± 1546 a.u.
Variation % (glucose) vs control (C57BL/KsJ db/db mouse [2]; [4]): +12%
Variation % (HDL-cholesterol) vs control (C57BL/KsJ db/db mouse [2]; after 25 days' treatment): +18%
Variation % (triglycerides) vs control (C57BL/KsJ db/db mouse [2]; after 25 days' treatment): −30%
Glucose (plasma) (C57BL/KsJ db/db mouse [2]; after 25 days' treatment, postabsorption (fasting 9 a.m. to 4.30 p.m.), 7.5 hours after last treatment, mean ± S.E.): 553 ± 30 mg/dL
Variation % (fructosamine) vs control (C57BL/KsJ db/db mouse [2]; [5]): +15%
Variation % (plasma glucose) vs control (C57BL/KsJ db/db mouse [2]; [5]): +21%
Fructosamine (plasma) (C57BL/KsJ db/db mouse [2]; [6]): 0.92 ± 0.02Δ mM
HDL-choles. (plasma) (C57BL/KsJ db/db mouse [2]; [6]): 96.4 ± 4.2 mg/dL
Triglycerides (plasma) (C57BL/KsJ db/db mouse [2]; [6]): 66.5 ± 3.5Δ mg/dl
Glucose (C57BL/KsJ db/db mouse [2]; after 12 days' treatment, postabsorption (fasting 9 a.m. to 5 p.m.), 8 hours after last treatment, mean ± S.E.): 409 ± 11 mg/dL
Glucose (C57BL/KsJ db/db mouse [2]; [7]): 384 ± 20 mg/dL
Glucose (C57BL/KsJ db/db mouse [2]; [8]): 466 ± 8 mg/dL

CN(CCOc1ccc(CC2SC(=O)NC2=O)cc1)c1ccccn1 (stereo not shown) [Rosiglitazone, rosiglitazone, reference compound]
Variation % (final b.w.) vs control (C57BL/KsJ db/db mouse [1]): +49%
Variation % (initial b.w.) vs control (C57BL/KsJ db/db mouse [1]): +3%
Variation % (glucose) vs control (C57BL/KsJ db/db mouse [2]; [3]): −25%
Variation % (glucose) vs control (C57BL/KsJ db/db mouse [2]; [4]): −35%
Variation % (HDL-cholesterol) vs control (C57BL/KsJ db/db mouse [2]; after 25 days' treatment): −20%
Variation % (triglycerides) vs control (C57BL/KsJ db/db mouse [2]; after 25 days' treatment): −54%
Glucose (C57BL/KsJ db/db mouse [2]; [7]): 225 ± 27▪ mg/dl
Glucose (C57BL/KsJ db/db mouse [2]; [8]): 365 ± 64 mg/dL
Final b.w. (C57BL/KsJ db/db mouse [2]; final body weight after 25 days' treatment, postabsorption condition, mean ± S.E.): 42.1 ± 2.5Δ g
Initial b.w. (C57BL/KsJ db/db mouse [2]; initial body weight, postabsorption condition, mean ± S.E.): 32.6 ± 1.4 g
